Consider 25 molecules from patent US10538495B2, “Modulators of indoleamine 2,3-dioxygenase” (GLAXOSMITHKLINE INTELLECTUAL PROPERTY DEVELOPMENT LIMITED, priority 2016, dated 2020).

This assay concerns the target indoleamine 2,3-dioxygenase (IDO1) (Homo sapiens, UniProt P14902). Put plainly: HeLa IDOi assay (kynurenine by mass spectrometry). The conditions noted are these: IFN-γ stimulated HeLa cells, 2 days, kynurenine detected by mass spectrometry; read-out: HeLa pIC50 (converted). Details: human epithelial HeLa cells (CCL-2; host or cells: HeLa cells stimulated with human IFN-γ. It counts as cell-based. How it is done: Brief descriptions of the cellular assays are provided following the table.
Compounds of the present invention were tested via high-throughput cellular assays utilizing detection of kynurenine via mass spectrometry and cytotoxicity as end-points. For the mass spectrometry and cytotoxicity assays, human epithelial HeLa cells (CCL-2; ATCC®, Manassas, Va.) were stimulated with human interferon-γ (IFN-γ) (Sigma-Aldrich Corporation, St. Louis, Mo.) to induce the expression of indoleamine 2,3-dioxygenase (IDO1). Compounds with IDO1 inhibitory properties decreased the amount of kynurenine produced by the cells via the tryptophan catabolic pathway. Cellular toxicity due to the effect of compound treatment was measured using CellTiter-Glo® reagent (CTG) (Promega Corporation, Madison, Wis.), which is based on luminescent detection of ATP, an indicator of metabolically active cells.
In preparation for the assays, test compounds were serially diluted 3-fold in DMSO from a typical top concentration of 5 mM and plated at 0.5 μL in 384-well, polystyrene, clear bottom, tissue culture treated plates with lids (Greiner Bio-One, Kremsmünster, Austria) to generate 11-point dose response curves. Low control wells (0% kynurenine or 100% cytotoxicity) contained either 0.5 μL of DMSO in the presence of unstimulated (−IFN-γ) HeLa cells for the mass spectrometry assay or 0.5 μL of DMSO in the absence of cells for the cytotoxicity assay, and high control wells (100% kynurenine or 0% cytotoxicity) contained 0.5 μL of DMSO in the presence of stimulated (+IFN-γ) HeLa cells for both the mass spectrometry and cytotoxicity assays.
Frozen stocks of HeLa cells were washed and recovered in DMEM high glucose medium with HEPES (Thermo Fisher Scientific, Inc., Waltham, Mass.) supplemented with 10% v/v certified fetal bovine serum (FBS) (Thermo Fisher Scientific, Inc., Waltham, Mass.), and 1× penicillin-streptomycin antibiotic solution (Thermo Fisher Scientific, Inc., Waltham, Mass.). The cells were diluted to 100,000 cells/mL in the supplemented DMEM medium. 50 μL of either the cell suspension, for the mass spectrometry assay, or medium alone, for the cytotoxicity assay, were added to the low control wells, on the previously prepared 384-well compound plates, resulting in 5,000 cells/well or 0 cells/well respectively. IFN-γ was added to the remaining cell suspension at a final concentration of 10 nM, and 50 μL of the stimulated cells were added to all remaining wells on the 384-well compound plates. The plates, with lids, were then placed in a 37° C., 5% CO2 humidified incubator for 2 days.
Following incubation, the 384-well plates were removed from the incubator and allowed to equilibrate to room temperature for 30 minutes. For the cytotoxicity assay, CellTiter-Glo® was prepared according to the manufacturer's instructions, and 10 μL were added to each plate well. After a twenty minute incubation at room temperature, luminescence was read on an EnVision® Multilabel Reader (PerkinElmer Inc., Waltham, Mass.). For the mass spectrometry assay, 10 μL of supernatant from each well of the compound-treated plates were added to 40 μL of acetonitrile, containing 10 μM of an internal standard for normalization, in 384-well, polypropylene, V-bottom plates (Greiner Bio-One, Kremsmünster, Austria) to extract the organic analytes. Following centrifugation at 2000 rpm for 10 minutes, 10 μL from each well of the acetonitrile extraction plates were added to 90 μL of sterile, distilled H2O in 384-well, polypropylene, V-bottom plates for analysis of kynurenine and the internal standard on the RapidFire 300 (Agilent Technologies, Santa Clara, Calif.) and 4000 QTRAP MS (SCIEX, Framingham, Mass.). MS data were integrated using Agilent Technologies' RapidFire Integrator software, and data were normalized for analysis as a ratio of kynurenine to the internal standard. […]

Each structure is given as a SMILES string. Where a name gives a salt, the structure may show the parent alone.

Sequence of indoleamine 2,3-dioxygenase (IDO1) (P14902 whole entry): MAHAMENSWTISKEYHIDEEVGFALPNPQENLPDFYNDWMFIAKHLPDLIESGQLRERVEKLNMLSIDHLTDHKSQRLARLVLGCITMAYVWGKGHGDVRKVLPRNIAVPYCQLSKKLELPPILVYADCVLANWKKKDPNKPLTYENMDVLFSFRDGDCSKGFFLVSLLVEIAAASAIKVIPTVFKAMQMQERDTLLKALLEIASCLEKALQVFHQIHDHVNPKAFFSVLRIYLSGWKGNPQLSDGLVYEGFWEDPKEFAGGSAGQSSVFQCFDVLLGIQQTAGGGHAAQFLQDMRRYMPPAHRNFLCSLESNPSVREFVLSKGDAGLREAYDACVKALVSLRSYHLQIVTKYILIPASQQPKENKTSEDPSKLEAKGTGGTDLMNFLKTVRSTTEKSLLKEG

With `CC(C)(C)Sc1ccc(-c2ccccc2-c2nn[nH]n2)cc1NC(=O)Cc1ccc2c(c1)OCO2` [Example 38, 2-(Benzo[d][1,3]dioxol-5-yl)-N-(4-(tert-butylthio)-2′-(2H-tetrazol-5-yl)-[1,1′-biphenyl]-3-yl)acetamide], the IC50 is 100 nM.

As to `Cc1ccc(CC(=O)Nc2cc(-c3ccccc3-c3nnnn3C)ccc2SC(C)(C)C)cc1` [Example 62, N-(4-(tert-butylthio)-2′-(1-methyl-1H-tetrazol-5-yl)-[1,1′-biphenyl]-3-yl)-2-(p-tolyl)acetamide], the IC50 was 501 nM.

For `CC(C)(C)Sc1ccc(-c2ccccc2-c2nn[nH]n2)cc1Nc1nc(Cl)ns1` [Example 42, N-(4-(tert-butylthio)-2′-(2H-tetrazol-5-yl)-[1,1′-biphenyl]-3-yl)-3-chloro-1,2,4-thiadiazol-5-amine], the IC50 was 126 nM.

As for `Cc1ccc(CC(=O)Nc2cc(-c3ccccc3-c3nn[nH]n3)ccc2SC(C)(C)C)nc1` [Example 26, N-(4-(tert-butylthio)-2′-(2H-tetrazol-5-yl)-[1,1′-biphenyl]-3-yl)-2-(5-methylpyridin-2-yl)acetamide], the IC50 is 794 nM.

Take `CC(C)(C)Sc1ccc(-c2ccccc2-c2nn[nH]n2)cc1NC(=O)Cc1cnccn1` [Example 5, N-(4-(tert-butylthio)-2′-(2H-tetrazol-5-yl)-[1,1′-biphenyl]-3-yl)-2-(pyrazin-2-yl)acetamide]: the IC50 was > 10000 nM.

`Cc1ccc(CC(=O)Nc2cc(-c3ccccc3-c3nn[nH]n3)ccc2SC(C)(C)C)cc1F` [Example 21, N-(4-(tert-butylthio)-2′-(2H-tetrazol-5-yl)-[1,1′-biphenyl]-3-yl)-2-(3-fluoro-4-methylphenyl)acetamide]: the IC50 is 20 nM.

As to `CC(C)(C)Sc1ccc(-c2ccccc2-c2nn[nH]n2)cc1NC(=O)Cc1ccccc1` [Example 25, N-(4-(tert-butylthio)-2′-(2H-tetrazol-5-yl)-[1,1′-biphenyl]-3-yl)-2-phenylacetamide], the IC50 was 398 nM.

In the case of `CC(C)(C)Sc1ccc(-c2ccccc2-c2nn[nH]n2)cc1NC(=O)CC1CCNCC1` [Example 30, N-(4-(tert-butylthio)-2′-(2H-tetrazol-5-yl)-[1,1′-biphenyl]-3-yl)-2-(piperidin-4-yl)acetamide Hydrochloride], the IC50 is > 10000 nM.

As for `CC(CC(=O)O)c1ccc(SC(C)(C)C)c(Nc2nc(Cl)ns2)c1` (stereo not shown) [Example 45, 3-(4-(tert-Butylthio)-3-((3-chloro-1,2,4-thiadiazol-5-yl)amino)phenyl)butanoic Acid], the IC50 is 2510 nM.

Consider `Cc1cc(CC(=O)Nc2cc(-c3ccccc3-c3nn[nH]n3)ccc2SC(C)(C)C)on1` [Example 8, N-(4-(tert-butylthio)-2′-(2H-tetrazol-5-yl)-[1,1′-biphenyl]-3-yl)-2-(3-methylisoxazol-5-yl)acetamide], for which the IC50 was 6310 nM.

Take `CC(C)(C)Sc1ccc(-c2ccccc2-c2nn[nH]n2)cc1NC(=O)Cc1cncnc1` [Example 9, N-(4-(tert-butylthio)-2′-(2H-tetrazol-5-yl)-[1,1′-biphenyl]-3-yl)-2-(pyrimidin-5-yl)acetamide]: the IC50 is > 10000 nM.

As to `CC(C)(C)OC(=O)N1CCC(CC(=O)Nc2cc(-c3ccccc3-c3nn[nH]n3)ccc2SC(C)(C)C)CC1` [Example 29], the IC50 was 5010 nM.

On to `COc1ccc(CC(=O)Nc2cc(-c3ccccc3-c3nn[nH]n3)ccc2SC(C)(C)C)cc1` [Example 22, N-(4-(tert-butylthio)-2′-(2H-tetrazol-5-yl)-[1,1′-biphenyl]-3-yl)-2-(4-methoxyphenyl)acetamide], for which the IC50 was 31.6 nM.

For `CC(=O)OCn1nnc(-c2ccccc2-c2ccc(SC(C)(C)C)c(NC(=O)Cc3ccc(C)cc3)c2)n1` [Example 57, (5-(4′-(tert-Butylthio)-3′-(2-(p-tolyl)acetamido)-[1,1′-biphenyl]-2-yl)-2H-tetrazol-2-yl)methyl Acetate], the IC50 is 25.1 nM.

Consider `COCC(=O)Nc1cc(-c2ccccc2-c2nn[nH]n2)ccc1SC(C)(C)C` [Example 33, N-(4-(tert-butylthio)-2′-(2H-tetrazol-5-yl)-[1,1′-biphenyl]-3-yl)-2-methoxyacetamide], for which the IC50 was 7940 nM.

Take `Cc1ccc(CC(=O)Nc2cc(-c3ccccc3-c3nn[nH]n3)ccc2SC2CCOCC2)cc1` [Example 12, N-(4-((tetrahydro-2H-pyran-4-yl)thio)-2′-(2H-tetrazol-5-yl)-[1,1′-biphenyl]-3-yl)-2-(p-tolyl)acetamide]: the IC50 is 5010 nM.

Consider `CC(C)(C)Sc1ccc(-c2ccccc2-c2nn[nH]n2)cc1NC(=O)Cc1ccc(C#N)cc1` [Example 7, N-(4-(tert-butylthio)-2′-(2H-tetrazol-5-yl)-[1,1′-biphenyl]-3-yl)-2-(4-cyanophenyl)acetamide], for which the IC50 was 5010 nM.

For `CC(C)(C)Sc1ccc(-c2ccccc2-c2nn[nH]n2)cc1NC(=O)Cc1ccc(F)cc1` [Example 24, N-(4-(tert-butylthio)-2′-(2H-tetrazol-5-yl)-[1,1′-biphenyl]-3-yl)-2-(4-fluorophenyl)acetamide], the IC50 was 398 nM.

Consider `CC(C)(C)Sc1ccc(-c2ccccc2-c2nn[nH]n2)cc1NC(=O)CC1CC1` [Example 17, N-(4-(tert-butylthio)-2′-(2H-tetrazol-5-yl)-[1,1′-biphenyl]-3-yl)-2-cyclopropylacetamide], for which the IC50 is 2510 nM.

With `COCCCSc1ccc(-c2ccccc2-c2nn[nH]n2)cc1NC(=O)Cc1ccc(C)cc1` [Example 11, N-(4-((3-methoxypropyl)thio)-2′-(2H-tetrazol-5-yl)-[1,1′-biphenyl]-3-yl)-2-(p-tolyl)acetamide], the IC50 was 1000 nM.

With `COCn1nnc(-c2ccccc2-c2ccc(SC(C)(C)C)c(NC(=O)Cc3ccc(C)cc3)c2)n1` [Example 59, N-(4-(tert-butylthio)-2′-(2-(methoxymethyl)-2H-tetrazol-5-yl)-[1,1′-biphenyl]-3-yl)-2-(p-tolyl)acetamide], the IC50 was 398 nM.

Regarding `Cc1ccc(CC(=O)Nc2cc(-c3ccccc3-c3nnn(C)n3)ccc2SC(C)(C)C)cc1` [Example 61, N-(4-(tert-butylthio)-2′-(2-methyl-2H-tetrazol-5-yl)-[1,1′-biphenyl]-3-yl)-2-(p-tolyl)acetamide], the IC50 was 631 nM.

Consider `COCn1nnnc1-c1ccccc1-c1ccc(SC(C)(C)C)c(NC(=O)Cc2ccc(C)cc2)c1` [Example 60, N-(4-(tert-butylthio)-2′-(1-(methoxymethyl)-1H-tetrazol-5-yl)-[1,1′-biphenyl]-3-yl)-2-(p-tolyl)acetamide], for which the IC50 is 63.1 nM.

As to `Cc1ccc(CC(=O)Nc2cc(-c3ccccc3-c3nnn(COP(=O)(OC(C)(C)C)OC(C)(C)C)n3)ccc2SC(C)(C)C)cc1` [Example 49, di-tert-butyl ((5-(4′-(tert-butylthio)-3′-(2-(p-tolyl)acetamido)-[1,1′-biphenyl]-2-yl)-2H-tetrazol-2-yl)methyl) phosphate], the IC50 was 1000 nM.

Take `COc1ccc(CC(=O)Nc2cc(-c3ccccc3-c3nn[nH]n3)ccc2SC(C)(C)C)cc1F` [Example 23, N-(4-(tert-butylthio)-2′-(2H-tetrazol-5-yl)-[1,1′-biphenyl]-3-yl)-2-(3-fluoro-4-methoxyphenyl)acetamide]: the IC50 was 63.1 nM.
